Measurements: ChEMBL document CHEMBL3632551, “Kynurenine Monooxygenase (KMO) Inhibitors for the Treatment of Acute Pancreatitis and Neurodegenerative Disorders” (ACS Med Chem Lett, 2015)

Molecular target: Kynurenine 3-monooxygenase (Homo sapiens, UniProt O15229)
Test: Inhibition of kynurenine monooxygenase (unknown origin) by MS rapidfire assay

Sequence of Kynurenine 3-monooxygenase (O15229 whole entry): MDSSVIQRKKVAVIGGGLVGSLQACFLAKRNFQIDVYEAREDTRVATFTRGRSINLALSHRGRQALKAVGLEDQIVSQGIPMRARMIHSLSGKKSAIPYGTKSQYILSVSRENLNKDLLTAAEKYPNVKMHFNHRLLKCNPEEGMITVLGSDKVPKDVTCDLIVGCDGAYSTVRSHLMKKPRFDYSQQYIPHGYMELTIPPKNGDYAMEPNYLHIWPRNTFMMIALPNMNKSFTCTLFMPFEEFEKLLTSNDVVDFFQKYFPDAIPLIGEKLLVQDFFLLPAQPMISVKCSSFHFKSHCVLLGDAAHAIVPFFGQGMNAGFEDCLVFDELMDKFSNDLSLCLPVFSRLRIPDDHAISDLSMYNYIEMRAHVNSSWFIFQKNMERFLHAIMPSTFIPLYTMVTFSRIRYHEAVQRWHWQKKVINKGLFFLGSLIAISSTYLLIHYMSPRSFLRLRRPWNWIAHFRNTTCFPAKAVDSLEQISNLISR

Structure (SMILES) | IC50 [nM]
Cn1ccnc1COc1cc2oc(=O)n(CCC(=O)O)c2cc1Cl | < 794
C[C@@H](Oc1cc2oc(=O)n(CCC(=O)O)c2cc1Cl)c1cccnn1 | < 794
